The values that follow come from publication PMC6783563 (Frontiers in Microbiology, 2019).

Data set [1] relates to mouse. The settings on record: in vivo, ip, 10 mg/kg; cited from earlier work. An excerpt: (§1) In particular, cationic proline-rich antimicrobial peptides (PrAMPs) belong to the second group binding to the negatively charged bacteria surface by electrostatic interactions through basic amino acid residues. Proline residues account for extended, partially polyproline helix II-like secondary structures that most likely support free penetration through the outer membrane of Gram-negative bacteria. PrAMPs accumulate in the periplasmic space where the transporters SbmA and MdtM actively translocate them into the cells ([Mattiuzzo et al., 2007]; [Runti et al., 2013]; [Krizsan et al., 2015a]). ...

Data set [2] can be described thus: Pharmacokinetics: Api137 plasma levels after iv or sc injection in mice. Also noted: species or system CD-1 mice. The settings on record: in vivo. As to the method:
(§2) Api137 dissolved in 0.9% saline was injected iv or sc in mice (18–26 g, total = 51) and rats (204–248 g, total = 12) at a dose volume of 10 and 5 mL/kg BW, respectively, according to the dosing scheme (Supplementary Figures 1, 2). Three mice per dose and time point were euthanized by carbon dioxide inhalation and blood was collected via cardiac puncture into K2-EDTA Microtainer® tubes (Becton Dickinson and Company, BD, Franklin Lakes, NJ, United States). Additionally, blood was collected via saphenous vein puncture from three rats into identic tubes.
(§3) Api137 was quantified in EDTA plasma samples using reversed-phase chromatography (RP-HPLC) coupled to electrospray ionization mass spectrometry (ESI-MS/MS) at TNO Triskelion (Zeist, Netherlands). Analog Api134 was used as internal standard. Briefly, internal standard solution (10 μL, 5 mg/L) was added to a plasma sample (50 μL) and mixed with aqueous phosphoric acid (50 μL; 4%, v/v). Solid phase extraction was performed on a WCX micro-elution plate (Waters Corporation, Milford, MA, United States) with a final elution using aqueous acetonitrile (75%, v/v) containing 1% (v/v) trifluoroacetic acid. Extracts were analyzed on an Acquity C18 BEH column (2.1 mm internal diameter, 10 cm length, 1.7 μm particle size; Waters) using an Acquity UPLC system coupled online to a XEVO TQS mass spectrometer (Waters; for details see Supplementary Material). Alternatively, Api137 and metabolites 1–16 and 1–17 were quantified for selected samples in house as reported recently ([Schmidt et al., 2017]).
(§4) 1. Quantitative analysis of Api137 in plasma using a LC-MS/ MS method
(§5) Chemicals were obtained from the following manufacturers. Biosolve B.V. (Valkenswaard, The Netherlands): acetonitrile, formic acid, methanol (all ULC/MS grade); Sigma-Aldrich (St.
(§6) Louis, MO, USA): phosphoric acid (Fluka, 85%), trifluoroacetic acid (Reagent Plus, 99%); Merck KGaA (Darmstadt, Germany): ammonia (25%); water (Milli -Q® Advantage A10 Water […]
(§7) Internal standard solution (10 µL, Api134, 5 µg/mL) was added to a plasma sample (50 µL or 25 µL) and mixed with aqueous phosphoric acid (50 µL or 75 µL; 4%, v/v). Solid phase extraction (SPE) was performed on a WCX micro -elution plate (2 mg, Waters):
(§8) Conditioning I Methanol 200
(§9) Conditioning II Purified water 200
(§10) Sample application Diluted plasma sample 110
(§11) Wash step I Aqueous ammonia (5%, v/v) 200
(§12) Wash step II Aqueous acetonitrile (20%, v/v) 200
(§13) Elution I Aqueous acetonitrile (75%, v/v) including trifluoroacetic 50 […]
(§14) Elution II Aqueous acetonitrile (75%, v/v) including trifluoroacetic 50 […]
(§15) Water (100 µL) was added to the eluate and the plate was covered to avoid avaporation. The plate was shaken (10 min, plate shaker) and the extract was analysed using RPC-MS/MS.
(§16) (1 picture or pasted object on this page, not shown here)
(§17) 1.2.RPC-ESI-MS/MS equipment and conditions
(§18) Equipment/Parameter Value
(§19) UPLC system Acquity (Micromass Waters)
(§20) UPLC column temperature 50 °C
(§21) Autosampler temperature 10 °C […]
(§22) Mobile phase A 1% formic acid in water
(§23) Mobile phase B 1% formic acid in acetonitrile
(§24) Strong Wash [Volume] Methanol/Water/Formic acid (80/20/0.1) [200 µL]
(§25) Weak wash [Volume] Acetonitrile/Water/Trifluoroacetic acid (40/60/0.25) [600 µL]
(§26) Mass spectrometer XEVO TQS (Micromass Waters)
(§27) Ionization mode Electrospray ionization (positive mode)
(§28) Source temperature 150 °C
(§29) Desolvation temperature 600 °C
(§30) Desolvation gas flow 1000 L/h
(§31) Time [min] Mobile phase B [%]
(§32) 1.4.Conditions for multiple reaction monitoring
(§33) Peptide Precursor ion (m/z) Product ion (m/z) Cone [V] Collision energy [eV]
(§34) The peak area of the peptides was obtained using MassLynx 4.1 software (Micromass Waters). The peak a rea ratio (PAR) of peptide Api137 and the internal standard Api134 (Y-axis) was plotted versus the actual peptide concentration (x -axis) to construct a calibration […]
(§35) Supplementary Figure 1 : Dosing schemes and time -points of blood collection for pharmacokinetic analysis of three mice per dose group and time -point. […]

Data set [3] can be described thus: in vivo. Also on record: species or system Sprague Dawley rats. The settings on record: Sprague Dawley, rat. As to the method: as §2, §3, §4, §5, §6, §7, §8, §9, §10, §11, §12, §13, §14, §15, §16, §17, §18, §19, §20, §21, §22, §23, §24, §25, §26, §27, §28, §29, §30, §31, §32, §33, §34, §35
The subject of data set [4] is CD-1 mice. The data set is described as follows: Tolerance study after intravenous injection in mice. Type of data set: in vivo, mouse. To be noted: female CD-1 mice, n = 2. As to the method:
(§36) Eight female CD-1 mice (22–30 g, n = 2) or four SD rats (218–260 g, n = 1) were treated iv (10 and 5 mL/kg, respectively) with Api137 formulated in 0.9% saline (TEKnova, Hollister, CA, United States) at concentrations of 5, 10, 25, and 50 mg/kg body weight and their behavior monitored for 24 h.

The conditions of data set [5]: mouse, in vivo, cited from earlier work.
Excerpt: as §1, with “... || Severe multi-drug resistant infections are treated under medical supervision in the hospital using intravenous injection or infusion as preferred administration route for rapid and controlled achievement of efficacious drug plasma levels. […] Unexpectedly, the maximal plasma levels of 6.8 mg/L obtai ...” for “...”

The test system of data set [6] is SD rats. The data set is described as follows: Tolerance study after intravenous injection in rats. Type of data set: in vivo, rat. To be noted: monitored 24 h, n = 1. Here is the method:
as §36

A short description of data set [7]: EDTA plasma of CD-1 mice after continuous sc infusion of Api137 (12.8 mg/kg/h) using ALZET osmotic pumps. To be noted: up to 24 h.
For data set [8], the system named is Escherichia coli ATCC 25922. The data set is described as follows: Lethal murine intraperitoneal sepsis (infection) model. The settings on record: control, iv 0.25 mg/kg at 1 h post infection, n = 6. Type of data set: in vivo, CD-1 mice. Here is the method: Escherichia coli ATCC 25922 was obtained from American Type Culture Collection (Manassas, VA, United States). Cells were grown overnight on solid agar, suspended in saline and adjusted to an OD of 0.1 at 625 nm. The suspension was further diluted in 5% hog gastric mucin (Sigma-Aldrich Corporation, St. Louis, MO, United States) and final inoculums between 4.8 × 10^5 and 2.0 × 10^6 colony forming units (cfu) per mouse were injected ip (500 μL). Api137 and levofloxacin was dissolved in sterile saline and sterile water, respectively, and were administered iv (5 mL/kg) into the tail vein or sc (10 mL/kg) into the back. Alternatively, an hour post infection ALZET® osmotic pumps were implanted under isoflurane anesthesia (see above). After 24 h, pumps were exchanged once and finally removed after 48 h.
The log-rank (Mantel-Cox) test was used for comparison of the survival curves and dose-response curves were fitted with the “dose-response log(inhibitor) vs. normalized response – variable slope” function with “least squares fit” using GraphPad Prism 5.02.

Setting [9] is: CD-1, mouse, iv, 5 mg/kg, Plasma level.
[10] abbreviates: CD-1, mouse, iv, 10 mg/kg, Plasma level.
Where [11] appears, read: CD-1, mouse, iv, 20 mg/kg, Plasma level.
The mark [12] stands for this setting: CD-1, mouse, sc, 20 mg/kg, Plasma level.

Entries after “also recorded” stand apart in the source; their conditions may differ. Read-outs that look alike come from different tables or passages of the source. Residues, ends and D or L forms follow the SMILES beside them. *: point of attachment. Orn(α-tetramethylguanidino) = CN(C)C(=N[C@@H](CCCN)C(=O)*)N(C)C Some results are limits rather than exact numbers.

As for `CC[C@H](C)[C@H](NC(=O)[C@H](Cc1ccc(O)cc1)NC(=O)[C@@H](NC(=O)[C@@H]1CCCN1C(=O)[C@H](CCCNC(=N)N)NC(=O)[C@H](CC(N)=O)NC(=O)[C@H](CC(N)=O)NC(=O)[C@H](CCCN)N=C(N(C)C)N(C)C)C(C)C)C(=O)N1CCC[C@H]1C(=O)N[C@@H](CCCNC(=N)N)C(=O)N1CCC[C@H]1C(=O)N[C@@H](CCCNC(=N)N)C(=O)N1CCC[C@H]1C(=O)N1CCC[C@H]1C(=O)N[C@@H](Cc1c[nH]cn1)C(=O)N1CCC[C@H]1C(=O)N[C@@H](CCCNC(=N)N)C(=O)N[C@@H](CC(C)C)C(=O)O` [Api137] ({Orn(α-tetramethylguanidino)}-NNRPVYIPRPRPPHPRL-OH), the “Immune response (anti-Api137 IgG antibodies)” value in data set [1] is listed as “Only one mouse showed a very weak immune response with a very low level of anti-Api137 IgG antibodies”. Also, the level at 0.5 h is around 500 ng/mL in data set [2] (CD-1, mouse, 20 mg/kg, Plasma level after 30 min); 90 ng/mL in data set [2] (setting [9]); 300 ng/mL in data set [2] (setting [10]); 440 ng/mL in data set [2] (setting [11]); 300 ng/mL in data set [2] (setting [12]); 160 to 210 ng/mL in data set [3] (iv). In addition, the level at 0.5 h in data set [3] (sc, 5 mg/kg) was 30 ng/mL; in data set [3] (sc, 10 mg/kg) it was 80 ng/mL; in data set [3] (sc, 20 mg/kg), 250 ng/mL. The Plasma level was 5 to 20 ng/mL in data set [2] (CD-1, mouse, iv) and 200 ng/mL in data set [5] (ip, 5 mg/kg). The level at 245 min in data set [2] (CD-1, mouse, iv, 5 mg/kg, Plasma concentration) turned out to be 10100 ng/mL; in data set [2] (CD-1, mouse, iv, 10 mg/kg, Plasma concentration), 10500 ng/mL; in data set [2] (CD-1, mouse, iv, 20 mg/kg, Plasma concentration) it was 22900 ng/mL; in data set [2] (setting [11]), 12500 ng/mL. For the same compound, the level at 5 min is 6800 ng/mL in data set [2] (setting [9]); 12900 ng/mL in data set [2] (setting [10]); 23200 ng/mL in data set [2] (setting [11]); 400 ng/mL in data set [2] (CD-1, mouse, sc, 5 mg/kg, Plasma level); 900 ng/mL in data set [2] (CD-1, mouse, sc, 10 mg/kg, Plasma level); 2900 ng/mL in data set [2] (setting [12]). Further, the level at 5 min in data set [3] (sc, 5 mg/kg) worked out at 100 ng/mL; in data set [3] (sc, 10 mg/kg), 400 ng/mL; in data set [3] (sc, 20 mg/kg), 800 ng/mL. Further, the values for the level at 4.5 h in data set [2] (setting [10]) and in data set [2] (setting [11]) were 160 ng/mL and 90 ng/mL, respectively. For the same compound, in data set [2] (setting [11]), the level at 125 min was 15400 ng/mL. Further, the level at 1 h in data set [2] (setting [12]) was 14 ng/mL; in data set [3] (sc, 20 mg/kg), 20 ng/mL. Also, the half-life (as a rule, the time needed for the level to fall by half in the phase considered) in data set [2] (mouse, iv, 20 mg/kg) is below 30 min. The “Tolerance after iv injection” value in data set [4] (5 mg/kg iv in 0.9% saline, monitored 24 h) is “No adverse effects were observed”; in data set [4] (50 mg/kg iv) it was “experienced convulsion and low blood pressure immediately after dosing and died within 1 min”; in data set [4] (10 and 20 mg/kg iv, monitored 24 h) it was “lethargic within minutes directly after dosing with piloerection for the next 45 min but recovered to normal limits within 1 h”; in data set [6] (5 mg/kg iv) it was “No adverse effects were observed”; in data set [6] (10 to 50 mg/kg iv) it was “experienced labored breathing and lethargy but recovered to normal limits within 5 h post injection”. Further, in data set [5] (ip, 20 mg/kg), the Maximal plasma level is listed as 3.6 mg/L. For the same compound, in data set [5] (iv, 5 mg/kg), the “Plasma level (maximal)” value was 400 ng/mL.

Take Gu-ONNRPVYIPRPRPPHPRL-OH: in data set [7], the fragment found entry was “Api137(1-17), major, 1 h; also recorded: Api137(1-16), major, 1 h”.

For the compound `C[C@H]1COc2c(N3CCN(C)CC3)c(F)cc3c(=O)c(C(=O)O)cn1c23` [levofloxacin], the “Efficacy compared with Api137” value in data set [8] was “more efficacious”.
